{
  "source": "paper PMC11423540",
  "about": "“Synthesis and biological evaluation of ortho-phenyl phenylhydroxamic acids containing phenothiazine with improved selectivity for class IIa histone deacetylases” (Journal of Enzyme Inhibition and Medicinal Chemistry, 2024)",
  "key": {"SCC2095 cells": {"tested_on": "SCC2095 cells", "assay": "Western blotting of caspase- and HDAC-related proteins", "format": "cell-based, human", "conditions": "western blot", "description": "The protein expression was performed as previously described. Proteins were resolved on 10% SDS-PAGE, then transferred to PVDF (Bio-Rad) membranes. After blocking with 5% skimmed milk in PBS containing 0.1% Tween 20, the membranes were probed with primary antibodies against interest target proteins at 4 °C overnight. The following primary antibodies were used: […], cleaved caspase 9, acetyl α-tubulin, Hsp90, Histone H2A.X, p38, p-^180Thr/^182Tyr p38, PPARγ, and p21 were purchased from Cell Signalling Technologies (Beverly, MA, USA); pro-caspase 8, Millipore; β-actin, Sigma-Aldrich (St. Louis, MO, USA). Then, the immunoblots were washed and exposed to HRP-conjugated secondary antibodies at room temperature for 1 h. The immunoblots were examined by enhanced chemiluminescence."}, "[1]": {"tested_on": "SCC2095, MDA-MB-231 and SCM-1 cells", "assay": "Cell viability (MTT) assay, cancer cell lines (summary)", "format": "cell-based", "conditions": "Homo sapiens; SCC2095, MDA-MB-231, SCM-1; read-out: IC50 of cytotoxicity, range over cancer cell lines", "excerpt": "(§1) Human breast cancer MDA-MB-231 cells and gastric cancer SCM-1 cells were purchased from the American Type Culture Collection (Manasas, VA, USA). SCC2095 human oral cancer cells were kindly provided by Professor Susan R. Mallery (The Ohio State University). Normal human lung fibroblasts (NHLFs; CC-2512) were purchased from the Lonza (Walkersville, MD, USA). SCM-1 cells were maintained in RPMI-1640 medium (Invitrogen, Carlsbad, CA, USA); MDA-MB-231 and SCC2095 cells were maintained in DMEM/F12 (Invitrogen); and NHLFs were maintained in FGM™-2 medium (Lonza) with 2% serum, supplemented with 10% heat-inactivated foetal bovine serum (FBS; Gibco, Grand Island, NY, USA). All cells were cultured at 37 °C in a humidified incubator containing 5% CO2 and 95% relative humidity.\n(§2) To assess cell viability, cells were seeded in three replicates into 96-well plates at a density of 5×10^3/well for 24 h following incubation with compounds at the indicated concentrations. Then, cell viability was assessed with 3–(4,5-dimethylthiazol-2-yl)-2,5-diphenyltetrazolium bromide (MTT) solution (0.5 mg/mL) for 4h as described previously. After removing the medium, 200 µL of DMSO was added, and then the absorbance was measured at 570 nm using a plate reader (BMG LABTECH, Germany)."}, "HDAC6": {"biological_target": "T1, HDAC6 (Homo sapiens, UniProt Q9UBN7)", "T1 sequence (Q9UBN7 1-1215)": "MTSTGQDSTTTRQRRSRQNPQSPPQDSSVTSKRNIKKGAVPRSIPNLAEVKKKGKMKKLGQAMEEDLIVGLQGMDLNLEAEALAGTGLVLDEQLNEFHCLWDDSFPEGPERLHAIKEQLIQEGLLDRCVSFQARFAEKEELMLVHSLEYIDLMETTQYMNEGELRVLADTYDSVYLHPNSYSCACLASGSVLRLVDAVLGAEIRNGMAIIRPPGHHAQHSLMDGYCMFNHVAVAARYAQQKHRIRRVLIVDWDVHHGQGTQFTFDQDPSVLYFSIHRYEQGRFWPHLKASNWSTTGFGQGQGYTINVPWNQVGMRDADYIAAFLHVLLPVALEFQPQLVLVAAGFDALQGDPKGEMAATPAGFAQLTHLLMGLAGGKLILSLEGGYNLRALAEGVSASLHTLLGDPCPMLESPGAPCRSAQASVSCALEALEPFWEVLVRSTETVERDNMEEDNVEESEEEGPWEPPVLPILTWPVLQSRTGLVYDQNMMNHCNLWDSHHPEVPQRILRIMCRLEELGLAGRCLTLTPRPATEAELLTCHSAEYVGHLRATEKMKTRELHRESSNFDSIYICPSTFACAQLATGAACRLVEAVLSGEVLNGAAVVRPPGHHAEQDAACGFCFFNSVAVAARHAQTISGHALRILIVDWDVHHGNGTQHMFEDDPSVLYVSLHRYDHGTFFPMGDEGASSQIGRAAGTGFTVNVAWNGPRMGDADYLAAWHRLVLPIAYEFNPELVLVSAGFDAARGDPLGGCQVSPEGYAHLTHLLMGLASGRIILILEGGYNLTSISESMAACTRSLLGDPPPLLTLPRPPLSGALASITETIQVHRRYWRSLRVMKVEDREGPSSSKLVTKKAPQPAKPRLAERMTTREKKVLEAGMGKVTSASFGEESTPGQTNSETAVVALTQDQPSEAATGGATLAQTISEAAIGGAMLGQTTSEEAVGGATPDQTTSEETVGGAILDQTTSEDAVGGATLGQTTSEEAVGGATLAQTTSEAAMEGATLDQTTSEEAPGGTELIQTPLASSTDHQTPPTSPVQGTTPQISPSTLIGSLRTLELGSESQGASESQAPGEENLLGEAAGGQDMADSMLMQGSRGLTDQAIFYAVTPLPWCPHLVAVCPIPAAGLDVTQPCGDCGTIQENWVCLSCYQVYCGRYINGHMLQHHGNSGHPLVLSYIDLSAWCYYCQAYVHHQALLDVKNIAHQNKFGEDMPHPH", "assay": "HDAC inhibition assay, HDAC6"}, "HDAC4 protein": {"tested_on": "HDAC4 protein", "assay": "Surface plasmon resonance binding to HDAC4", "conditions": "Figure S1", "description": "HDAC4 protein was crosslinked by EDC (1-ethyl-3-(3-dimethylaminopropyl) carbodiimide) and NHS (N-hydroxysuccinimide). The crosslinking reagent and protein were co- incubated 30 minutes at 25°C.\nBinding reactivity to mutant HDAC4 protein was performed by SPR (OpenSPR, Nicoyalife). The recombinant HDAC4 protein was crosslinked by EDC/NHC regent, followed by dilution to a concentration of 50 μg/mL with PBS and immobilized onto a amine sensor chip (Nicoyalife). The analytes were tested at various dilutions in PBST, and the flow rate was maintained at 20 μL/min during analysis. The amine sensor chip was regenerated with 10 mM glycine−HCl, pH2.5. The results were analyzed using TraceDrawer software (Nicoyalife)."}, "[2]": {"assay": "Cell viability (MTT) assay, normal human lung fibroblasts", "format": "cell-based", "conditions": "normal human lung fibroblasts (NHLF, CC-2512); normal human lung fibroblast cells; read-out: IC50 of cytotoxicity against normal cells", "excerpt": "as §1, §2"}},
  "data": [
    {"smiles": "NC(=NO)c1ccc2c(c1)N(Cc1ccc(C(=O)NO)c(-c3ccccc3)c1)c1ccccc1S2", "note": "[Compound 7g, N-Hydroxy-4-[2-(N’-hydroxycarbamimidoyl)-10H-phenothiazin-10-yl]methyl-2-phenylbenzamide]", "values": [
      {"measurement": "levels of Hsp90", "setting": "SCC2095 cells; SCC2095, 24 h", "result": "increased"},
      {"measurement": "levels of PPARγ", "setting": "SCC2095 cells; SCC2095, 24 h", "result": "increased"},
      {"measurement": "levels of cleaved caspase 9", "setting": "SCC2095 cells; SCC2095, 24 h", "result": "up-regulated"},
      {"measurement": "levels of p21", "setting": "SCC2095 cells; SCC2095, 24 h", "result": "increased"},
      {"measurement": "levels of pro-caspase 8", "setting": "SCC2095 cells; SCC2095, 24 h", "result": "down-regulated"},
      {"measurement": "phosphorylation of Histone H2A.X", "setting": "SCC2095 cells; SCC2095, DNA damage biomarker", "result": "increased"},
      {"measurement": "phosphorylation of p38", "setting": "SCC2095 cells; SCC2095, dose-dependent", "result": "up-regulated"},
      {"measurement": "IC50", "setting": "[1]", "result": "3 to 8.4", "unit": "µM"},
      {"measurement": "IC50", "setting": "HDAC6", "result": "0.97 ± 0.05", "unit": "µM"},
      {"measurement": "SPR binding to HDAC4 protein", "setting": "HDAC4 protein", "result": "can bind to HDAC4 protein"},
      {"measurement": "IC50", "setting": "[2]", "result": 8, "unit": "µM"}
    ]}
  ]
}
